# How the values were obtained:
# SG3199 = compound: CC1=CN2[C@@H](C1)C=NC3=CC(=C(C=C3C2=O)OC)OCCCCCOC4=C(C=C5C(=C4)N=C[C@@H]6CC(=CN6C5=O)C)OC [SG3199]; settings: max 0.001 µM
# In short: (§1)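 Cancer cell lines were seeded into 1536-well plates in 7.5 μl medium (DMEM/F12 or RPMI, 10% FBS), held 24 hours at 37°C and 5% CO2, and dosed for 72 hours with final DMSO typically 0.2%. Luminescence from CellTiter-Glo 2.0, scaled between blank-well and DMSO-well means, served as viability. The single-agent IC50 was obtained from dose-response fits with a non-linear mixed effects model, each fit being a two-parameter logistic curve.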
# Lapatinib = compound: CS(=O)(=O)CCNCc1ccc(-c2ccc3ncnc(Nc4ccc(OCc5cccc(F)c5)c(Cl)c4)c3c2)o1 [Lapatinib]; settings: max 10 µM
# In short: as §1
# Trametinib = compound: CC(=O)Nc1cccc(-n2c(=O)n(C3CC3)c(=O)c3c(Nc4ccc(I)cc4F)n(C)c(=O)c(C)c32)c1 [Trametinib]; settings: max 1 µM
# In short: as §1
# Dasatinib = compound: CC1=C(C(=CC=C1)Cl)NC(=O)C2=CN=C(S2)NC3=CC(=NC(=N3)C)N4CCN(CC4)CCO [Dasatinib]; settings: max 2 µM
# In short: as §1
# AZD8186 = compound: C[C@@H](Nc1cc(F)cc(F)c1)c1cc(C(=O)N(C)C)cc2c(=O)cc(N3CCOCC3)oc12 [AZD8186]; settings: max 3 µM
# In short: as §1
# Gefitinib = compound: COc1cc2ncnc(Nc3ccc(F)c(Cl)c3)c2cc1OCCCN1CCOCC1 [Gefitinib]; settings: max 10 µM
# In short: as §1
# Venetoclax = compound: CC1(C)CCC(CN2CCN(c3ccc(C(=O)NS(=O)(=O)c4ccc(NCC5CCOCC5)c([N+](=O)[O-])c4)c(Oc4cnc5[nH]ccc5c4)c3)CC2)=C(c2ccc(Cl)cc2)C1 [Venetoclax]; settings: max 1 µM
# In short: as §1
# Prexasertib = compound: COc1cccc(OCCCN)c1-c1cc(Nc2cnc(C#N)cn2)n[nH]1 [Prexasertib]; settings: max 1 µM
# In short: as §1
# AZD1775 = compound: C=CCn1c(=O)c2cnc(Nc3ccc(N4CCN(C)CC4)cc3)nc2n1-c1cccc(C(C)(C)O)n1 [AZD1775]; settings: max 3 µM
# In short: as §1
# AZD6738 = compound: C[C@@H]1COCCN1C2=NC(=NC(=C2)C3(CC3)[S@](=N)(=O)C)C4=C5C=CNC5=NC=C4 [AZD6738]; settings: max 10 µM
# In short: as §1
# Crizotinib = compound: C[C@@H](Oc1cc(-c2cnn(C3CCNCC3)c2)cnc1N)c1c(Cl)ccc(F)c1Cl [Crizotinib]; settings: max 10 µM
# In short: as §1
# Taselisib = compound: Cc1nc(-c2cn3c(n2)-c2ccc(-c4cnn(C(C)(C)C(N)=O)c4)cc2OCC3)n(C(C)C)n1 [Taselisib]; settings: max 10 µM
# In short: as §1
# SN-38 = compound: CCc1c2c(nc3ccc(O)cc13)-c1cc3c(c(=O)n1C2)COC(=O)[C@]3(O)CC [SN-38]; settings: max 0.3 µM
# In short: as §1
# AZD1390 = compound: CC(C)n1c(=O)n(C)c2cnc3cc(F)c(-c4ccc(OCCCN5CCCCC5)nc4)cc3c21 [AZD1390]; settings: max 0.3 µM
# In short: as §1
# AZD5991 = compound: Cc1c2c(nn1C)CSCc1cc(n(C)n1)CSc1cc(c3ccccc3c1)OCCCc1c(C(=O)O)n(C)c3c-2c(Cl)ccc13 [AZD5991]; settings: max 1 µM
# In short: as §1
# Alisertib = compound: COc1cc(Nc2ncc3c(n2)-c2ccc(Cl)cc2C(c2c(F)cccc2OC)=NC3)ccc1C(=O)O [Alisertib]; settings: max 10 µM
# In short: as §1
# AZD7648 = compound: Cc1cc2ncnn2cc1Nc1ncc2c(n1)n(C1CCOCC1)c(=O)n2C [AZD7648]; settings: max 10 µM
# In short: as §1
# Doxorubicin = compound: COc1cccc2c1C(=O)c1c(O)c3c(c(O)c1C2=O)C[C@@](O)(C(=O)CO)C[C@@H]3O[C@H]1C[C@H](N)[C@H](O)[C@H](C)O1 [Doxorubicin]; settings: max 1 µM
# In short: as §1
# Selumetinib = compound: Cn1cnc2c(F)c(Nc3ccc(Br)cc3Cl)c(C(=O)NOCCO)cc21 [Selumetinib]; settings: max 10 µM
# In short: as §1
# AZD2811 = compound: CCN(CCO)CCCOc1ccc2c(Nc3cc(CC(=O)Nc4cccc(F)c4)[nH]n3)ncnc2c1 [AZD2811]; settings: max 1 µM
# In short: as §1
# Capivasertib = compound: C1CN(CCC1(C(=O)N[C@@H](CCO)C2=CC=C(C=C2)Cl)N)C3=NC=NC4=C3C=CN4 [Capivasertib]
# In short: as §1
# Olaparib = compound: O=C(c1cc(Cc2n[nH]c(=O)c3ccccc23)ccc1F)N1CCN(C(=O)C2CC2)CC1 [Olaparib]
# In short: as §1
# AZD5153 = compound: COc1nnc2ccc(N3CCC(c4ccc(OCCN5CCN(C)C(=O)[C@H]5C)cc4)CC3)nn12 [AZD5153]; settings: max 1 µM
# In short: as §1
# AZD4320 = compound: CN(CC[C@H](CSC1=CC=CC=C1)NC2=C(C=C(C=C2)S(=O)(=O)NC(=O)C3=CC=C(C=C3)N4CCC(CC4)[C@H](C5=CC=CC=C5C6=CC=C(C=C6)Cl)O)S(=O)(=O)C(F)(F)F)CCO [AZD4320]; settings: max 1 µM
# In short: as §1
# AZD0156 = compound: CN(C)CCCOc1ccc(-c2ccc3ncc4c(c3c2)n(C2CCOCC2)c(=O)n4C)cn1 [AZD0156]; settings: max 3 µM
# In short: as §1
# Savolitinib = compound: C[C@@H](c1ccc2nccn2c1)n1nnc2ncc(-c3cnn(C)c3)nc21 [Savolitinib]; settings: max 1 µM
# In short: as §1
# Palbociclib = compound: CC(=O)c1c(C)c2cnc(Nc3ccc(N4CCNCC4)cn3)nc2n(C2CCCC2)c1=O [Palbociclib]; settings: max 10 µM
# In short: as §1
Cell Line,"IC50, cell viability 72 h (SG3199)","IC50, cell viability 72 h (Lapatinib)","IC50, cell viability 72 h (Trametinib)","IC50, cell viability 72 h (Dasatinib)","IC50, cell viability 72 h (AZD8186)","IC50, cell viability 72 h (Gefitinib)","IC50, cell viability 72 h (Venetoclax)","IC50, cell viability 72 h (Prexasertib)","IC50, cell viability 72 h (AZD1775)","IC50, cell viability 72 h (AZD6738)","IC50, cell viability 72 h (Crizotinib)","IC50, cell viability 72 h (Taselisib)","IC50, cell viability 72 h (SN-38)","IC50, cell viability 72 h (AZD1390)","IC50, cell viability 72 h (AZD5991)","IC50, cell viability 72 h (Alisertib)","IC50, cell viability 72 h (AZD7648)","IC50, cell viability 72 h (Doxorubicin)","IC50, cell viability 72 h (Selumetinib)","IC50, cell viability 72 h (AZD2811)","IC50, cell viability 72 h (Capivasertib; max 10 µM)","IC50, cell viability 72 h (Olaparib; max 10 µM)","IC50, cell viability 72 h (AZD5153)","IC50, cell viability 72 h (AZD4320)","IC50, cell viability 72 h (AZD0156)","IC50, cell viability 72 h (Savolitinib)","IC50, cell viability 72 h (Palbociclib)","IC50, cell viability 72 h (Olaparib; max 3 µM)","IC50, cell viability 72 h (Capivasertib; max 3 µM)"
HuH-7 (Hepatocellular Carcinoma),> 1 nM,> 10 µM,> 1000 nM,> 2000 nM,> 3000 nM,> 10 µM,> 1000 nM,> 1000 nM,> 3000 nM,> 10 µM,> 10 µM,> 10 µM,> 300 nM,> 300 nM,> 1000 nM,> 10 µM,> 10 µM,> 1000 nM,> 10 µM,> 1000 nM,> 10 µM,> 10 µM,> 1000 nM,> 1000 nM,> 3000 nM,> 1000 nM,> 10 µM,–,–
KMRC-20 (Kidney Carcinoma),> 1 nM,> 10 µM,> 1000 nM,875 nM,> 3000 nM,> 10 µM,> 1000 nM,31.4 nM,1290 nM,> 10 µM,> 10 µM,> 10 µM,32.8 nM,> 300 nM,> 1000 nM,6.92 µM,> 10 µM,> 1000 nM,> 10 µM,> 1000 nM,> 10 µM,> 10 µM,> 1000 nM,> 1000 nM,> 3000 nM,> 1000 nM,> 10 µM,–,–
L-428 (Hodgkin's Lymphoma),> 1 nM,> 10 µM,> 1000 nM,> 2000 nM,> 3000 nM,> 10 µM,> 1000 nM,23.3 nM,429 nM,5.4 µM,> 10 µM,> 10 µM,46.9 nM,> 300 nM,> 1000 nM,> 10 µM,> 10 µM,106 nM,> 10 µM,> 1000 nM,> 10 µM,> 10 µM,130 nM,475 nM,> 3000 nM,> 1000 nM,> 10 µM,–,–
LCLC-97TM1 (Non-Small Cell Lung Carcinoma),> 1 nM,> 10 µM,26.4 nM,> 2000 nM,> 3000 nM,> 10 µM,> 1000 nM,28.3 nM,1380 nM,2.28 µM,4.84 µM,3.36 µM,75.6 nM,> 300 nM,> 1000 nM,3.44 µM,> 10 µM,> 1000 nM,3.19 µM,> 1000 nM,> 10 µM,> 10 µM,153 nM,> 1000 nM,> 3000 nM,> 1000 nM,> 10 µM,–,–
MHH-CALL-2 (B-Lymphoblastic Leukemia),–,> 10 µM,> 1000 nM,> 2000 nM,> 3000 nM,> 10 µM,> 1000 nM,93.4 nM,1070 nM,3.26 µM,0.679 µM,9.37 µM,2.33 nM,> 300 nM,150 nM,3.12 µM,> 10 µM,–,> 10 µM,> 1000 nM,> 10 µM,–,> 1000 nM,> 1000 nM,> 3000 nM,> 1000 nM,> 10 µM,> 3 µM,–
NCI-H209 (Small Cell Lung Carcinoma),> 1 nM,> 10 µM,> 1000 nM,> 2000 nM,> 3000 nM,> 10 µM,978 nM,18.1 nM,373 nM,2.11 µM,> 10 µM,> 10 µM,0.637 nM,> 300 nM,> 1000 nM,7.74 µM,> 10 µM,281 nM,> 10 µM,800 nM,> 10 µM,1.03 µM,> 1000 nM,18.4 nM,> 3000 nM,> 1000 nM,> 10 µM,–,–
NCI-H720 (Other Solid Carcinomas),> 1 nM,–,–,–,–,–,–,441 nM,1480 nM,6.58 µM,–,–,> 300 nM,–,–,–,> 10 µM,> 1000 nM,–,652 nM,–,> 10 µM,–,–,> 3000 nM,–,–,–,0.812 µM
OE21 (Esophageal Squamous Cell Carcinoma),> 1 nM,6.83 µM,> 1000 nM,1280 nM,> 3000 nM,3.38 µM,> 1000 nM,43.3 nM,718 nM,–,> 10 µM,1.03 µM,214 nM,> 300 nM,> 1000 nM,> 10 µM,> 10 µM,> 1000 nM,> 10 µM,> 1000 nM,5.2 µM,> 10 µM,256 nM,> 1000 nM,> 3000 nM,> 1000 nM,> 10 µM,–,–

# Reference: the supplement of paper PMC11061612
